Measurements: patent US20150335602A1, “IMPROVEMENT OF COGNITIVE FUNCTION IN PRETERM INFANTS THAT ARE SMALL FOR GESTATIONAL AGE” (N.V. NUTRICIA, priority 2013, published 2015)

Tests used:
Assay type in all cases: in vivo, human
[1] = Brain cortical volumes by MRI at school age after enteral glutamine supplementation in the first month of life; details: glutamine supplemented group versus control preterm group
Description: (§1) A randomized, placebo controlled clinical trial was performed. For a detailed protocol of the study, see van den Berg et al, 2004, Glutamine-enriched enteral nutrition in very low birth weight infants. Design of a double-blind randomised controlled trial [ISRCTN73254583], BMC Pediatrics 4:17.
(§2) In short: Infants with a gestational age <32 weeks and/or birth weight <1500 g were enrolled. […] Also comparisons were made with a control group (n=52) of term born infants.
(§3) The two powders were indistinguishable by appearance, colour and smell. […] Initially, the supplementation dose was based on birth weight. After 2 weeks the dose was adjusted to actual body weight. Two members of the nursing staff daily added supplementation to breast milk or to preterm formula (Nenatal®, Nutricia Nederland B. V., Zoetermeer, The Netherlands), according to the parents' choice. Per 100 ml, Nenatal® provides 78 kcal, 2.1 g protein (casein-whey protein weight ratio 40:60), 4.4 g fat and 7.5 g carbohydrate. […] Protocol guidelines for the introduction of parenteral and enteral nutrition are disclosed in van den Berg et al., 2004.
(§4) All statistical analyses are performed on an intention to treat basis. […]
Brain cortical volumes were determined by MRI and calculated using FSL software “FAST” and corrected for age at MRI scan, gender and body weight for gestational age.

[2] = Brain subcortical volumes by MRI at school age after enteral glutamine supplementation in the first month of life; details: glutamine supplemented group versus control preterm group
Description: as §1, §2, §3, §4
Brain subcortical volumes were determined by MRI and calculated using FSL software “FAST” and corrected for age at MRI scan, gender and body weight for gestational age.

[3] = Intellectual development (WISC-III short form, FSIQ) in preterm children born small for gestational age; details: SGA glutamine group versus SGA control group, n=9 each
Description: A subgroup of infants born small for gestational age (SGA <10th percentile) was identified and analysed separately. Intellectual development was analysed in this subgroup of infants by a short form of the Wechsler Intelligence Scale for Children-III (WISC-III), including the subtests Vocabulary and Block Design. Both subtests correlate strongly (r 0.90) with full-scale intelligence quotient (FSIQ). Scores on this test were normalised with a mean of 100 (SD 15). A group of nine SGA infants that received placebo was compared with a group of nine SGA infants that received glutamine treatment.

For `NC(=O)CC[C@H](N)C(=O)O` [Glutamine, L-glutamine], the “White matter volume compared to preterm control group (in words)” value [1] was “significantly higher”, the “Brain stem volume compared to preterm control group (in words)” value [2] was “significantly higher” and the “Hippocampus volume compared to preterm control group (in words)” value [2] was “significantly higher”. The “IQ compared to SGA control group (in words)” value [3] was “significant improvement”.
